Data published in PubChem BioAssay (NCI).
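Where inhibition never reached the appropriate level, the endpoint shown equals the highest concentration tested. Otherwise, values were interpolated linearly from a five-concentration, 48-hour dose response in 96-well plates. GI50 marks 50% less growth. The concentration for full growth arrest is given as TGI.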

How the values were obtained:
Assay in all cases: DTP human tumour cell line panel, 48 h
K-562 leukemia = system: K-562 leukemia
MOLT-4 leukemia = system: MOLT-4 leukemia
CCRF-CEM leukemia = system: CCRF-CEM leukemia
RPMI-8226 leukemia = system: RPMI-8226 leukemia
NCI-H23 lung = system: NCI-H23 lung
IGROV1 ovarian = system: IGROV1 ovarian
OVCAR-5 ovarian = system: OVCAR-5 ovarian
HCT-116 colon = system: HCT-116 colon
SK-MEL-2 melanoma = system: SK-MEL-2 melanoma
SNB-75 CNS = system: SNB-75 CNS

Row | Structure (SMILES) | GI50 (K-562 leukemia) [µM] | TGI (K-562 leukemia) [µM] | GI50 (MOLT-4 leukemia) [µM] | TGI (MOLT-4 leukemia) [µM] | GI50 (CCRF-CEM leukemia) [µM] | TGI (CCRF-CEM leukemia) [µM] | GI50 (RPMI-8226 leukemia) [µM] | TGI (RPMI-8226 leukemia) [µM] | GI50 (NCI-H23 lung) [µM] | TGI (NCI-H23 lung) [µM] | GI50 (IGROV1 ovarian) [µM] | TGI (IGROV1 ovarian) [µM] | GI50 (OVCAR-5 ovarian) [µM] | TGI (OVCAR-5 ovarian) [µM] | GI50 (HCT-116 colon) [µM] | TGI (HCT-116 colon) [µM] | GI50 (SK-MEL-2 melanoma) [µM] | TGI (SK-MEL-2 melanoma) [µM] | TGI (SNB-75 CNS) [µM] | GI50 (SNB-75 CNS) [µM]
1 | O=C1C(Cl)=C(Nc2cccc(O)c2)C(=O)N1c1ccc(Cl)c(Cl)c1 | 25.5 | > 100 | 15.1 | > 100 | 25.2 | 74.6 | 15.9 | 57.7 | 15.4 | 31.3 | 28.4 | > 100 | 18 | 35.5 | 18.4 | 33.9 | 54.8 | > 100 | – | –
2 | CC(=O)OC1CCC2(C)C(=CCC3C2CCC2(C)C(C(C)C(=O)O)CCC32)C1 (configuration not stated) | – | > 100 | – | > 100 | – | > 100 | – | > 100 | – | > 100 | – | > 100 | – | > 100 | – | > 100 | – | > 100 | > 100 | –
3 | C=C(CS(=O)(=O)c1ccccc1)[P+](c1ccccc1)(c1ccccc1)c1ccccc1 | – | 31.7 | – | 39.6 | – | 25 | – | 11.4 | – | 62.7 | – | 68.4 | – | > 100 | – | 25.2 | – | > 100 | 67.3 | –
4 | COc1ccc(-c2nn(-c3cccc(NC(=O)Nc4cc(C(F)(F)F)cc(C(F)(F)F)c4)c3)cc2-c2ccncc2)cc1Cl | 1.05 | 10 | 1.2 | 4 | 0.962 | 3.11 | 0.54 | 2.68 | 1.41 | 8.22 | 2.08 | 31.6 | 1.4 | 9.17 | 0.649 | 2.17 | 1.23 | 2.8 | 4.18 | 0.813
5 | O=c1[nH]c(SCc2c(Cl)c(Cl)c(Cl)c(Cl)c2Cl)nc(=S)[nH]1 | – | 45.9 | – | 21.3 | – | 36.9 | – | 23.3 | – | > 100 | – | > 100 | – | > 100 | – | > 100 | – | > 100 | > 100 | –
6 | N#Cc1c(-c2ccccc2)cc(-c2ccccc2)n(CCCCC(=O)NO)c1=O | 2.1 | 12.4 | 1.84 | 8.83 | 1.68 | 6.45 | 1.57 | 4.61 | 2.4 | 6.94 | 2.48 | 9.34 | 2.6 | 10.9 | 2.37 | 10.1 | 3.21 | 14.1 | 9.07 | 1.61
7 | CC(=O)OC1C(CCl)OC(N=[N+]=[N-])C(OC(C)=O)C1OC(C)=O (configuration not stated) | – | > 100 | – | > 100 | – | > 100 | – | > 100 | – | > 100 | – | > 100 | – | – | – | > 100 | – | > 100 | > 100 | –
8 | COc1cc([C@@H]2c3cc4c(cc3[C@@H](O[C@@H]3O[C@@H]5CO[C@@H](c6cccs6)O[C@H]5[C@H](O)[C@H]3O)[C@H]3COC(=O)[C@H]23)OCO4)cc(OC)c1O | 0.411 | > 100 | 0.0313 | – | 0.0704 | > 100 | – | 6.48 | 0.179 | 2.6 | – | 36.7 | 1.56 | 8.27 | 0.344 | 4.81 | 1.33 | 4.84 | 1.56 | 0.104
9 | CN(C)CCN=Cc1c2ccccc2c(=O)n2c1oc1ccccc12 | 11 | > 100 | 4.2 | > 100 | 4.36 | 62.8 | 11.3 | > 100 | 10.5 | 23 | 10.6 | 27.6 | 15.7 | 30.5 | – | – | 16.6 | 48.2 | 22.2 | 7.55
10 | COC(=O)[C@H](CC(C)C)NC(=O)NC(=O)NC(=O)CI | 1.91 | 4.6 | 2.1 | 5.12 | – | – | 2.92 | 7.75 | 14.9 | 32.2 | 2.06 | 4.64 | 14.3 | 30 | 10 | 22.8 | 13.7 | 27.9 | 28.6 | 11.9
11 | C[C@H]1CC[C@@H]2[C@@H](C)[C@H]3[C@H](C[C@H]4[C@@H]5CC=C6C[C@@H](O)CC[C@]6(C)[C@H]5C[C@H](O)[C@]34C)N2C1 | – | > 100 | – | > 100 | – | – | – | > 100 | – | > 100 | – | > 100 | – | > 100 | – | > 100 | – | > 100 | > 100 | –
12 | C=C1C(=O)O[C@@H]2C[C@@H]1CC[C@@]1(C)O[C@@H]1CC[C@@]1(C)O[C@@H]1CC[C@@]2(C)O | > 100 | > 100 | 10.1 | 32.3 | 28.1 | > 100 | 14.4 | 79.7 | 1.58 | 3.14 | 21.2 | > 100 | 20.5 | 56.5 | 16.4 | 32 | 23 | 75.2 | – | –
13 | CC[CH2][Sn]([Cl])([Cl])[CH2]CC | 3.33 | > 100 | 5.35 | > 100 | 1.24 | > 100 | 2.03 | 7.77 | 9.13 | 22 | – | – | 16.6 | 31 | 13.1 | 25.8 | 10.8 | 25.6 | 20.1 | 6.24
14 | CCC1CC(=O)N(SCC(N)C(=O)O)C1=O (configuration not stated) | – | > 100 | – | – | – | > 100 | – | > 100 | – | > 100 | – | > 100 | – | > 100 | – | > 100 | – | > 100 | > 100 | –
15 | C=C1Oc2nc3ccccc3c(=O)n2C1(C)C | – | > 100 | – | > 100 | – | > 100 | – | > 100 | – | > 100 | – | > 100 | – | > 100 | – | > 100 | – | > 100 | – | –
16 | O=C(O)C1c2ccccc2C(C(=O)O)c2ccccc21 (configuration not stated) | – | > 100 | – | > 100 | – | > 100 | – | > 100 | – | – | – | > 100 | – | > 100 | – | > 100 | – | > 100 | > 100 | –
